For two compounds, IC50 results are on record in PMC6911642 (Cancer research, 2019).

One test has as its target T1, PERK (Rattus norvegicus, UniProt Q9Z1Z1).
T1 sequence (Q9Z1Z1 28-1108): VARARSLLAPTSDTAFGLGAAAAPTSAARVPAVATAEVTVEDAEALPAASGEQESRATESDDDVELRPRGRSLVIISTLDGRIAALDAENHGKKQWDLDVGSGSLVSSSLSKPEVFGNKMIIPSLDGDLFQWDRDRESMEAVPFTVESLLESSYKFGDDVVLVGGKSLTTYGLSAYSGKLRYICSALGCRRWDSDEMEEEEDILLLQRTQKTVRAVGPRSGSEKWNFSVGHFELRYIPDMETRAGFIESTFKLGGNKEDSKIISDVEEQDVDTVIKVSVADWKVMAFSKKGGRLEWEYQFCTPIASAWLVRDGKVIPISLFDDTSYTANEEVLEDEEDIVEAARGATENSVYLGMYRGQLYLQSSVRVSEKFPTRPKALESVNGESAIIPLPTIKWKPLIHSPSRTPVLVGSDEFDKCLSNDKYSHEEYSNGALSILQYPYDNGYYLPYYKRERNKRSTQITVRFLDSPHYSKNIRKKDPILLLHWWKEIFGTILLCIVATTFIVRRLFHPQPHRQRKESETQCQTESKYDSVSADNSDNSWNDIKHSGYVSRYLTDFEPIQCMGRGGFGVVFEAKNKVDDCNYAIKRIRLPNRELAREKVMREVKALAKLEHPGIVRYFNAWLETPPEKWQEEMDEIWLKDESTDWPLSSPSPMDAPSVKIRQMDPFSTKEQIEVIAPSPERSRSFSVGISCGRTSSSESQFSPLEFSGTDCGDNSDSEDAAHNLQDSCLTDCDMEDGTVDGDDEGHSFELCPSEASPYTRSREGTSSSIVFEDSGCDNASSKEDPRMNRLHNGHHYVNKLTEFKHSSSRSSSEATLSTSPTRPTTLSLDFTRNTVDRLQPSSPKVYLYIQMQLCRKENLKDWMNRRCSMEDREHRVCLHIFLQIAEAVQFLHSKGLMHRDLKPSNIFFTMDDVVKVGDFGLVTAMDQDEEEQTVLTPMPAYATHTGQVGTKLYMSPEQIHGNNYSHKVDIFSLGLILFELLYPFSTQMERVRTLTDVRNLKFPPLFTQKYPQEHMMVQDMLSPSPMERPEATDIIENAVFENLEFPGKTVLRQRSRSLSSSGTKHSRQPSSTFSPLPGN
The test can be described thus: Inhibition of PERK autophosphorylation. The test is classed as cell-based.

The target in another test is IRE1α (Rattus norvegicus, UniProt A0A4Y1YQ52). The experiment in a line: Inhibition of IRE1α RNase output. The test is classed as cell-based.

The IC50 is the concentration that gives 50% inhibition. Read a high IC50 as weaker potency in that assay.

Chain of IRE1α (A0A4Y1YQ52 21-977): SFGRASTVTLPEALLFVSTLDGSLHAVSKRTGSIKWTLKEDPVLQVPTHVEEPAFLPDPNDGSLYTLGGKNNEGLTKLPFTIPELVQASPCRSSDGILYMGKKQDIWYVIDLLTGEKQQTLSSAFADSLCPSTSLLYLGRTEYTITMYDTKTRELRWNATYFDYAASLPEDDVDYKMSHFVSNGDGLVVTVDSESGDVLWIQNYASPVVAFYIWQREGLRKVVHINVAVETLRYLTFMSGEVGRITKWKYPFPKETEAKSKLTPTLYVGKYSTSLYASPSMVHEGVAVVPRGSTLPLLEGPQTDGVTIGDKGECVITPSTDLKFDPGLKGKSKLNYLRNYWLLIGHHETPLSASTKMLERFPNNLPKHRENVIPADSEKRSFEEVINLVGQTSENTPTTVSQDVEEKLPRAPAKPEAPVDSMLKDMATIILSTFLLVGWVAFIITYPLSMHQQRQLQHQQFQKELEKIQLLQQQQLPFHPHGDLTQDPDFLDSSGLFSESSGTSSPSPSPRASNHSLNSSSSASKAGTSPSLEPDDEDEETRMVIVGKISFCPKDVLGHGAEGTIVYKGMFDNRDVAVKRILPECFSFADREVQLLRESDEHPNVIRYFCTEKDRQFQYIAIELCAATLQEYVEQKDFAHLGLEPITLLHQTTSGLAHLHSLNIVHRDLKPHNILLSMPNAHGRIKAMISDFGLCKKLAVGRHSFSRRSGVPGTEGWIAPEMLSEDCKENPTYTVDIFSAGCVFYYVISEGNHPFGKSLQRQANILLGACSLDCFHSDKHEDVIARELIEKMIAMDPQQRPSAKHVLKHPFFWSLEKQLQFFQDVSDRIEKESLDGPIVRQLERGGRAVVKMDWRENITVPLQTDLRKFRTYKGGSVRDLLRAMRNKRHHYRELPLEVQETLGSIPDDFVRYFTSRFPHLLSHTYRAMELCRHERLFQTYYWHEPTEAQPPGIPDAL

On PERK, `Cc1cccc(CC(=O)N2CCc3c2ccc(-c2cn(C)c4ncnc(N)c24)c3F)n1` [GSK2656157] gave an IC50 of roughly 125 nM. Regarding `Cc1ccc2c(NS(=O)(=O)c3ccccc3Cl)cccc2c1Oc1ncccc1-c1ccnc(N[C@H]2CCCNC2)n1` [KIRA8], the IC50 against IRE1α was roughly 125 nM.
